This experiment concerns the target T1, intracellular domain of DDR1 (Homo sapiens, UniProt Q08345).
T1 construct: the intracellular domain of DDR1 (in a final concentration of 5 ng/μL) (Carna Biosciences, Inc.); purchased Carna Biosciences, Inc
The experiment in a line: Evaluation of DDR1 inhibition activity with HTRF KinEASE-TK kit. It is filed as biochemical. To be noted: DDR1 intracellular domain 5 ng/μL, ATP 25 μm/L, TK Substrate-biotin 1000 nmol/L, room temperature, one hour. The protocol: The DDR1 inhibition activity in the compounds of Examples 1 to 80 was evaluated with HTRF® KinEASE-TK kit (Cisbio Bioassays).
Each test substance was dissolved in dimethyl sulfoxide and then used for the evaluation as described below. Moreover, each of test substances and reagents was diluted in the kinase buffer (Cisbio Bioassays) prepared by adding thereto MgCl2, MnCl2, DTT, and the Supplemental Enzyme buffer (Cisbio Bioassays) to concentrations of 5 mmol/L, 0.5 mmol/L, 0.25 mmol/L, and 50 nmol/L, respectively, and then used. Each test substance (in DMSO in a final concentration of 1%), the intracellular domain of DDR1 (in a final concentration of 5 ng/μL) (Carna Biosciences, Inc.), the phosphate donor ATP (in final concentration of 25 μm/L) (Sigma), and the substrate TK Substrate-biotin (in a final concentration of 1000 nmol/L) (Cisbio Bioassays) were added to a 384-well black plate (Corning) and allowed to react at room temperature for one hour. After completion of the reaction, the TK Antibody-Cryptate (Cisbio Bioassays) and the Streptavidin-XL665 (Cisbio Bioassays) were added thereto and allowed to react at room temperature for one hour. In addition, the plate was provided with a well to which a test substance was not added, and with a well to which a test substance and the intracellular domain of DDR1 were […].
The fluorescence intensity in each well was measured using a multi-label counter (Envision, PerkinElmer; excitation wavelength: 320 nm, measurement wavelength: 665 nm and 620 nm) to calculate a ratio (the fluorescence intensity at 665 nm/the fluorescence intensity at 620 nm). The inhibition rate (%) of a test substance at each concentration was calculated based on the formula below: Inhibition rate (%)=([the ratio obtained from the well containing no test substance]−[the ratio from a well containing a test substance])/([the ratio obtained from the well containing no test substance]−[the ratio obtained from the well containing no intracellular domain of DDR1 and no test substance])×100.
The calculated inhibition rates were fitted to a sigmoidal dose-response curve by regression analysis using the Prism 5.04 (GraphPad Software, Inc.) to calculate the IC50 value of the test substance.

Structures are written as SMILES.

T1 sequence (Q08345 439-913 limits assumed): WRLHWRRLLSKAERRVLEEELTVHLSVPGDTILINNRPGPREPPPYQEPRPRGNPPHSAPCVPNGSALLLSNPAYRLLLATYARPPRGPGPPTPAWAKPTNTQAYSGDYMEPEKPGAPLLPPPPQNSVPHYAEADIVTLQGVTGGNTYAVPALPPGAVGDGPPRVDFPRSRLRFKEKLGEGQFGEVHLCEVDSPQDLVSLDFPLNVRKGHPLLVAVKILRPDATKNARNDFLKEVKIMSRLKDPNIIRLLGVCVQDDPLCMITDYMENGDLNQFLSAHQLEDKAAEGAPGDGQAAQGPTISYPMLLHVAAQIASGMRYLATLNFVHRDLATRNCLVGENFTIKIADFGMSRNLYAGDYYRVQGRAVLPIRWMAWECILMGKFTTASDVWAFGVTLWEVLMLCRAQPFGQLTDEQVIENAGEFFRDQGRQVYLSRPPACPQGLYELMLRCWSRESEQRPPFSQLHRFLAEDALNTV

For orientation: IC50 means the point on the concentration scale where inhibition reaches its midpoint. High values mean weaker potency, low ones greater potency. On to `CNc1ccnc(O[C@H]2CC[C@H](NC(=O)Nc3cc(OC(F)(F)F)ccc3OC)CC2)n1` [Example 54, 1-(2-methoxy-5-(trifluoromethoxy)phenyl)-3-(trans-4-((4-(methylamino)pyrimidin-2-yl)oxy)cyclohexyl)urea], for which the IC50 worked out at 95.1 nM.

On to `COc1ccc(OC(F)(F)F)cc1NC(=O)N[C@H]1CC[C@H](OCc2ccncc2)CC1` [Example 19, 1-(2-methoxy-5-(trifluoromethoxy)phenyl)-3-(trans-4-(pyridin-4-ylmethoxy)cyclohexyl)urea], for which the IC50 came out at 46.2 nM.

`COc1c(CO)cc(OC(F)(F)F)cc1NC(=O)N[C@H]1CC[C@H](Oc2ccnc(N3CCOCC3)n2)CC1` [Example 50, 1-(3-(hydroxymethyl)-2-methoxy-5-(trifluoromethoxy)phenyl)-3-(trans-4-((2-morpholinopyrimidin-4-yl)oxy)cyclohexyl)urea] registered an IC50 of 35.1 nM. This IC50 and that of the compound before are within 1.5-fold of each other.

Take `O=C1CN(c2ccc(C(F)(F)F)cc2NC(=O)N[C@H]2CC[C@H](Oc3ccnc(N4CCOCC4)n3)CC2)CCN1` [Example 8, 1-(trans-4-((2-morpholinopyrimidin-4-yl)oxy)cyclohexyl)-3-(2-(3-oxopiperazin-1-yl)-5-(trifluoromethyl)phenyl)urea]: half-maximal inhibition (IC50) was put at 46.3 nM.

`O=C(Nc1cc(C(F)(F)F)ccc1OC1COC1)N[C@H]1CC[C@H](Oc2ccnc(N3CCOCC3)n2)CC1` [Example 7, 1-(trans-4-((2-morpholinopyrimidin-4-yl)oxy)cyclohexyl)-3-(2-(oxetan-3-yloxy)-5-(trifluoromethyl)phenyl)urea]: 111 nM corresponded to half-maximal inhibition (IC50).

The compound `O=C(Nc1cc(C(F)(F)F)ccc1N1CCOCC1)N[C@H]1CC[C@H](OCc2ccncc2)CC1` [Example 28, 1-(2-morpholino-5-(trifluoromethyl)phenyl)-3-(trans-4-(pyridin-4-ylmethoxy)cyclohexyl)urea] showed an IC50 of 103 nM.

Regarding `COc1ccc(S(F)(F)(F)(F)F)cc1NC(=O)N[C@H]1CC[C@H](OCc2ccncc2)CC1` [Example 26, 1-(2-methoxy-5-(pentafluorosulfanyl)phenyl)-3-(trans-4-(pyridin-4-ylmethoxy)cyclohexyl)urea], half-maximal inhibition (IC50) required 82.7 nM.

For `COc1ccc(C(F)(F)F)cc1NC(=O)N[C@H]1CC[C@H](OCc2ccncc2)CC1` [Example 24, 1-(2-methoxy-5-(trifluoromethyl)phenyl)-3-(trans-4-(pyridin-4-ylmethoxy)cyclohexyl)urea], it took 124 nM to reach half-maximal inhibition (IC50).

Consider `COc1ccc(C(F)(F)F)cc1NC(=O)N[C@H]1CC[C@H](Oc2ccnc(-c3cccnc3)n2)CC1` [Example 37, 1-(2-methoxy-5-(trifluoromethyl)phenyl)-3-(trans-4-((2-(pyridin-3-yl)pyrimidin-4-yl)oxy)cyclohexyl)urea], for which the IC50 amounted to 149 nM.

For `O=C(Nc1cc(C(F)(F)F)ccc1Cl)N[C@H]1CC[C@H](Oc2ncccn2)CC1` [Example 58, 1-(2-chloro-5-(trifluoromethyl)phenyl)-3-(trans-4-(pyrimidin-2-yloxy)cyclohexyl)urea], half-maximal inhibition (IC50) required 528 nM.

`O=C(Nc1cc(C(F)(F)F)ccc1OC1CCNCC1)N[C@H]1CC[C@H](OCc2ccncc2)CC1` [Example 32, 1-(2-(piperidin-4-yloxy)-5-(trifluoromethyl)phenyl)-3-(trans-4-(pyridin-4-ylmethoxy)cyclohexyl)urea]: the IC50 worked out at 10 nM.

Turning to `COc1c(CO)cc(C(F)(F)F)cc1NC(=O)N[C@H]1CC[C@H](Oc2ccnc(-c3cccnc3)n2)CC1` [Example 45, 1-(3-(hydroxymethyl)-2-methoxy-5-(trifluoromethyl)phenyl)-3-(trans-4-((2-(pyridin-3-yl)pyrimidin-4-yl)oxy)cyclohexyl)urea], 33.8 nM corresponded to half-maximal inhibition (IC50).

`O=C(Nc1cc(C(F)(F)F)ccc1OC1COC1)N[C@H]1CC[C@H](OCc2ccncc2)CC1` [Example 56, 1-(2-(oxetan-3-yloxy)-5-(trifluoromethyl)phenyl)-3-(trans-4-(pyridin-4-ylmethoxy)cyclohexyl)urea] returned an IC50 of 55.8 nM.

For the compound `O=C(Nc1ccc(CO)c(C(F)(F)F)c1)N[C@H]1CC[C@H](Oc2ccnc(N3CCOCC3)n2)CC1` [Example 53, 1-(4-(hydroxymethyl)-3-(trifluoromethyl)phenyl)-3-(trans-4-((2-morpholinopyrimidin-4-yl)oxy)cyclohexyl)urea], the IC50 came out at 254 nM. This IC50 is about 4.6-fold higher than that of the compound before.

As to `O=C(Nc1cc(C(F)(F)F)ccc1OC1COC1)N[C@H]1CC[C@H](Oc2ccncn2)CC1` [Example 66, 1-(2-(oxetan-3-yloxy)-5-(trifluoromethyl)phenyl)-3-(trans-4-(pyrimidin-4-yloxy)cyclohexyl)urea], the midpoint of inhibition, the IC50, lay at 98.4 nM.

In the case of `COc1ccc(OC(F)(F)F)cc1NC(=O)N[C@H]1CC[C@H](Oc2ncccn2)CC1` [Example 9, 1-(2-methoxy-5-(trifluoromethoxy)phenyl)-3-(trans-4-(pyrimidin-2-yloxy)cyclohexyl)urea], the midpoint of inhibition, the IC50, lay at 349 nM.

In turn, `COc1c(CO)cc(C(F)(F)F)cc1NC(=O)N[C@H]1CC[C@H](Oc2ncccn2)CC1` [Example 12, 1-(3-(hydroxymethyl)-2-methoxy-5-(trifluoromethyl)phenyl)-3-(trans-4-(pyrimidin-2-yloxy)cyclohexyl)urea] had an IC50 of 96.7 nM.

As for `COc1ccc(OC(F)(F)F)cc1NC(=O)N[C@H]1CC[C@H](Oc2ccncn2)CC1` [Example 2, 1-(2-methoxy-5-(trifluoromethoxy)phenyl)-3-(trans-4-(pyrimidin-4-yloxy)cyclohexyl)urea], the IC50 was determined as 229 nM. This IC50 is about 2.4-fold higher than that of the compound before.

`CC(=O)N1CC(Oc2ccc(C(F)(F)F)cc2NC(=O)N[C@H]2CC[C@H](OCc3ccncc3)CC2)C1` [Example 33, 1-(2-((1-acetylazetidin-3-yl)oxy)-5-(trifluoromethyl)phenyl)-3-(trans-4-(pyridin-4-ylmethoxy)cyclohexyl)urea]: 28 nM corresponded to half-maximal inhibition (IC50).

In the case of `COc1ccc(OC(F)(F)F)cc1NC(=O)N[C@H]1CC[C@H](Oc2ccnc(N3CCOCC3)n2)CC1` [Example 1, 1-(2-methoxy-5-(trifluoromethoxy)phenyl)-3-(trans-4-((2-morpholinopyrimidin-4-yl)oxy)cyclohexyl)urea], the midpoint of inhibition, the IC50, lay at 476 nM.

Take `O=C(Nc1cc(C(F)(F)F)ccc1OC1CNC1)N[C@H]1CC[C@H](OCc2ccncc2)CC1` [Example 31, 1-(2-(azetidin-3-yloxy)-5-(trifluoromethyl)phenyl)-3-(trans-4-(pyridin-4-ylmethoxy)cyclohexyl)urea]: the IC50 turned out to be 76.7 nM.

In the case of `CNc1cc(O[C@H]2CC[C@H](NC(=O)Nc3cc(C(F)(F)F)ccc3OC3CCNCC3)CC2)ncn1` [Example 43], the midpoint of inhibition, the IC50, lay at 31.3 nM. This IC50 is about 2.5-fold lower than that of the compound before.

Turning to `O=C(Nc1cc(C(F)(F)F)ccc1OC1COC1)N[C@H]1CC[C@H](Oc2ccnc(-c3cccnc3)n2)CC1` [Example 38, 1-(2-(oxetan-3-yloxy)-5-(trifluoromethyl)phenyl)-3-(trans-4-((2-(pyridin-3-yl)pyrimidin-4-yl)oxy)cyclohexyl)urea], the IC50 came out at 61 nM.

As to `COc1ccc(OC(F)(F)F)cc1NC(=O)N[C@H]1CC[C@H](Oc2ccnc(-c3cccnc3)n2)CC1` [Example 39, 1-(2-methoxy-5-(trifluoromethoxy)phenyl)-3-(trans-4-((2-(pyridin-3-yl)pyrimidin-4-yl)oxy)cyclohexyl)urea], half-maximal inhibition (IC50) required 236 nM.

In the case of `COc1ccc(OC(F)(F)F)cc1NC(=O)N[C@H]1CC[C@H](COCc2ccncc2)CC1` [Example 74, 1-(2-methoxy-5-(trifluoromethoxy)phenyl)-3-(trans-4-((pyridin-4-ylmethoxy)methyl)cyclohexyl)urea], it took 25.2 nM to reach half-maximal inhibition (IC50).

Compound `COc1ccc(C(F)(F)F)cc1NC(=O)N[C@H]1CC[C@H](COCc2cccnc2)CC1` [Example 73, 1-(2-methoxy-5-(trifluoromethyl)phenyl)-3-(trans-4-((pyridin-3-ylmethoxy)methyl)cyclohexyl)urea] yielded an IC50 of 57.7 nM.

The compound `O=C(Nc1cc(C(F)(F)F)ccc1OC1COC1)N[C@H]1CC[C@H](OCc2cccnc2)CC1` [Example 76, 1-(2-(oxetan-3-yloxy)-5-(trifluoromethyl)phenyl)-3-(trans-4-(pyridin-3-ylmethoxy)cyclohexyl)urea] returned an IC50 of 14.1 nM.

`CNc1nccc(O[C@H]2CC[C@H](NC(=O)Nc3cc(C(F)(F)F)cc(CO)c3OC)CC2)n1` [Example 65, 1-(3-(hydroxymethyl)-2-methoxy-5-(trifluoromethyl)phenyl)-3-(trans-4-((2-(methylamino)pyrimidin-4-yl)oxy)cyclohexyl)urea] had an IC50 of 42.1 nM.

As to `O=C(Nc1cc(C(F)(F)F)ccc1O[C@@H]1CCNC1)N[C@H]1CC[C@H](OCc2ccncc2)CC1` [Example 35, 1-(trans-4-(pyridin-4-ylmethoxy)cyclohexyl)-3-(2-((R)-pyrrolidin-3-yloxy)-5-(trifluoromethyl)phenyl)urea], the IC50 stood at 88.6 nM. This IC50 lies about 2.1-fold higher than the previous one.
